# Laboratory results: publication PMC11932207, “Regulating AMPA Receptors with Isoxazole-4-Carboxamide Derivatives: An Electrophysiological Study” (Journal of Xenobiotics, 2025)
# Target: T1, GluA2 (Rattus norvegicus, UniProt P19491)
# T1 construct: expressed in transfected cells; host or cells: HEK293T (HEK293) cells, transient co-transfection with a separate EGFP vector
# Test: Whole-cell patch clamp recordings of homomeric GluA2 AMPA receptor currents and kinetics in transfected HEK293t cells
# Type: cell-based
# Conditions: 16 µM compound co-applied with agonist, HEK293t, −60 mV, pH 7.4, 22 °C, mean ± SD, n = 10
# From the text: (§1) The AMPA receptor subunits utilized in this study were of the flip isoform. The flip variant of the GluA2 subunit was originally provided by S. F. Heinemann (Salk Institute, La Jolla, CA, USA) in a pBlueScript plasmid. This plasmid was subsequently sub-cloned into a pRK vector to enable expression in HEK293 cells, which were sourced from Sigma, Germany. Additionally, the unedited version of GluA2 (R607Qjj, flip isoform) and enhanced green fluorescent protein (EGFP), both contained in pRK5 vectors, were generously supplied by P. H. Seeburg (Max Planck Institute for Medical Research, Heidelberg, Germany). Chemical-mediated ways induced transfection. GluA2 homomers were expressed into HEK293 cells by the co-transfection of 1 μg GluA2 plasmid with an equal amount of GFP expression vectors (1:1 ratio) into the cells. In addition, co-transfection was conducted for heteromeric GluA2/3 subunits at a ratio of 1:1.2 for optimum expression. For post-transfection experiments, cells were plated in 10% fetal calf serum and antibiotics in DMEM in Petri plates. These cultures were maintained under carefully controlled conditions—37 °C and 5% CO2 within a humidified incubator. The selection of cells for recordings was based on fluorescence intensity. Highly GFP-positive cells were identified and isolated for further analysis, ensuring precise targeting of transfected populations.
# (§2) Whole-cell patch clamp recordings were performed on HEK293t cells 36–48 h after transfection. Experiments were conducted at 22 °C, maintaining a holding potential of −60 mV, using an Integrated Patch Amplifier (IPA) from Sutter Instruments (Novato, CA, USA). Data acquisition was managed with SutterPatch Software v. 1.1.1 (Sutter Instruments), employing a sampling rate of 10 kHz and setting the low-pass filter at 2 kHz. […] The external solution contained 150 mM NaCl, 2.8 mM KCl, 0.5 mM MgCl2, 2 mM CaCl2, and 10 mM HEPES, adjusted to a pH of 7.4 using NaOH. The internal pipette solution was composed of 110 mM CsF, 30 mM CsCl, 4 mM NaCl, 0.5 mM CaCl2, 10 mM trypsin-EDTA solution B (0.25%), 0.05% EDTA, and 10 mM HEPES, with the pH adjusted to 7.2 using CsOH.
# (§3) A dual-barrel glass pipette (theta tube) was employed for the rapid delivery of glutamate and other solutions. The theta tube was attached to a high-speed piezoelectric solution exchange system (Automate Scientific, Berkeley, CA, USA). To assess the efficiency of solution exchange, open-tip potentials were measured by applying solutions with different ionic compositions after the patch was expelled from the pipette. The time required for a 10–90% change in the solution was generally less than […].
# (§4) Data analysis was performed with Igor Pro8.04 software (Wave Metrics, Inc., Portland, OR, USA). AMPA receptor deactivation and desensitization kinetics were measured by applying 10 mM glutamate for 1 ms and 500 ms, respectively. The currents from the AMPA receptor were fitted to a double-exponential model to quantify deactivation and desensitization time constants measured from the double-exponential fits. The weighted tau (τw) is calculated as: τw = (τf × af) + (τs × as), where τf and τs are the time constants of fast and slow exponential components and af and as represent their relative amplitudes.
# (§5) Data are presented as the mean ± standard deviation (SD). The total number of HEK293 cells engaged was n = 10. The experimental groups were compared to the wild type using a one-way analysis of variance (ANOVA). Statistical significance was assessed using p values: p < 0.05 (*) indicated significance, p < 0.01 (**) indicated high significance, and p < 0.001 (***) indicated very high significance. The value “ns” indicates non-significance. Concentration–response relationships were modeled using the Hill equation with the resulting combined plots via GraphPad Prism software (version 6.01, GraphPad Software). The data presented are the means from 3–4 experimental replicates. […]
# T1 sequence (P19491 22-883 isoform P19491-2 limits assumed): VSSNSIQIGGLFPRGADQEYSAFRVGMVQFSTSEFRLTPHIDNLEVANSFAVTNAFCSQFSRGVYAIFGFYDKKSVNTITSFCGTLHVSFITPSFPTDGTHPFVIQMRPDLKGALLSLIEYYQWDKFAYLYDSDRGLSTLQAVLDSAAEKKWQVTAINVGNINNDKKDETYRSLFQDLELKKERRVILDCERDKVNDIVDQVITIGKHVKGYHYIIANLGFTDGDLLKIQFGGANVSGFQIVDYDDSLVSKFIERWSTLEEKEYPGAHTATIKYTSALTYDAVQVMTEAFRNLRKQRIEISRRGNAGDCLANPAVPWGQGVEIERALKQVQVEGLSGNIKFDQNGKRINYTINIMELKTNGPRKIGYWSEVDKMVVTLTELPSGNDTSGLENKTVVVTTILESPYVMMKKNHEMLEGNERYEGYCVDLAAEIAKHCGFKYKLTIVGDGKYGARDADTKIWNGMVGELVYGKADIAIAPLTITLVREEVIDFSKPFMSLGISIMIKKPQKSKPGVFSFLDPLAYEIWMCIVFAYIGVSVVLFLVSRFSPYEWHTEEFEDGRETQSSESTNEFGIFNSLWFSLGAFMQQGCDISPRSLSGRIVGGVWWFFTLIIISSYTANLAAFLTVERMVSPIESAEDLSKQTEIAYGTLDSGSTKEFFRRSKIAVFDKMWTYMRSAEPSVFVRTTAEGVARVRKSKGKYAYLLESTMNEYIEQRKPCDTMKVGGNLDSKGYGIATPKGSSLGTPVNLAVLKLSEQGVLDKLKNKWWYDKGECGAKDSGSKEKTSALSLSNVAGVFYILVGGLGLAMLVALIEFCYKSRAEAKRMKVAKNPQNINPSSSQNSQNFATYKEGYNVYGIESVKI
row,Amplitude (peak whole-cell current in presence of compound),Compound
1,256±19 pA,"COc1ccc(NC(=O)c2c(-c3c(Cl)cccc3Cl)noc2C)cc1OC [CIC-6, 3-(2,6-dichlorophenyl)-N-(3,4-dimethoxyphenyl)-5-methylisoxazole-4-carboxamide]"

# Same assay, conditions: 16 µM compound, mean ± SD, n = 10
row,"A/AI (amplitude ratio, glutamate alone / with compound)",Compound
1,4.84±0.23,"COc1ccc(NC(=O)c2c(-c3c(Cl)cccc3Cl)noc2C)cc1OC [CIC-6, 3-(2,6-dichlorophenyl)-N-(3,4-dimethoxyphenyl)-5-methylisoxazole-4-carboxamide]"
2,4.10±0.18,"Cc1onc(-c2c(Cl)cccc2Cl)c1C(=O)Nc1ccc(-c2ccccc2)cc1 [CIC-9, N-([1,1′-biphenyl]-4-yl)-3-(2,6-dichlorophenyl)-5-methylisoxazole-4-carboxamide]"

# Same assay, conditions: 10 mM glutamate for 1 ms, with compound, mean ± SD
row,t deact (weighted deactivation time constant),Compound
1,5.4 ± 0.2 ms,"COc1ccc(NC(=O)c2c(-c3c(Cl)cccc3Cl)noc2C)cc1OC [CIC-6, 3-(2,6-dichlorophenyl)-N-(3,4-dimethoxyphenyl)-5-methylisoxazole-4-carboxamide]"
2,4.6 ± 0.2 ms,"Cc1onc(-c2c(Cl)cccc2Cl)c1C(=O)Nc1ccc(-c2ccccc2)cc1 [CIC-9, N-([1,1′-biphenyl]-4-yl)-3-(2,6-dichlorophenyl)-5-methylisoxazole-4-carboxamide]"

# Same assay, conditions: 10 mM glutamate for 500 ms, with compound, mean ± SD
row,Compound,t des (weighted desensitization time constant)
1,"COc1ccc(NC(=O)c2c(-c3c(Cl)cccc3Cl)noc2C)cc1OC [CIC-6, 3-(2,6-dichlorophenyl)-N-(3,4-dimethoxyphenyl)-5-methylisoxazole-4-carboxamide]",1.5 ± 0.1 ms
2,"Cc1onc(-c2c(Cl)cccc2Cl)c1C(=O)Nc1ccc(-c2ccccc2)cc1 [CIC-9, N-([1,1′-biphenyl]-4-yl)-3-(2,6-dichlorophenyl)-5-methylisoxazole-4-carboxamide]",2.0 ± 0.1 ms

# Same assay, conditions: concentration–response fit, read-out: Log IC50 (converted)
row,IC50,Compound
1,5.75 µM,"COc1ccc(NC(=O)c2c(-c3c(Cl)cccc3Cl)noc2C)cc1OC [CIC-6, 3-(2,6-dichlorophenyl)-N-(3,4-dimethoxyphenyl)-5-methylisoxazole-4-carboxamide]"
2,6.31 µM,"Cc1onc(-c2c(Cl)cccc2Cl)c1C(=O)Nc1ccc(-c2ccccc2)cc1 [CIC-9, N-([1,1′-biphenyl]-4-yl)-3-(2,6-dichlorophenyl)-5-methylisoxazole-4-carboxamide]"

# Same assay, conditions: glutamate alone after the compound, mean ± SD, n = 10
row,"Amplitude, applying glutamate alone after compound",Compound
1,1202±120 pA,"COc1ccc(NC(=O)c2c(-c3c(Cl)cccc3Cl)noc2C)cc1OC [CIC-6, 3-(2,6-dichlorophenyl)-N-(3,4-dimethoxyphenyl)-5-methylisoxazole-4-carboxamide]"
2,1226±158 pA,"Cc1onc(-c2c(Cl)cccc2Cl)c1C(=O)Nc1ccc(-c2ccccc2)cc1 [CIC-9, N-([1,1′-biphenyl]-4-yl)-3-(2,6-dichlorophenyl)-5-methylisoxazole-4-carboxamide]"

# Same assay, conditions: inhibition of whole-cell peak current, concentration–response, Hill fit, read-out: IC50
row,IC50,Compound
1,5.74 µM,"COc1ccc(NC(=O)c2c(-c3c(Cl)cccc3Cl)noc2C)cc1OC [CIC-6, 3-(2,6-dichlorophenyl)-N-(3,4-dimethoxyphenyl)-5-methylisoxazole-4-carboxamide]"
2,6.3 µM,"Cc1onc(-c2c(Cl)cccc2Cl)c1C(=O)Nc1ccc(-c2ccccc2)cc1 [CIC-9, N-([1,1′-biphenyl]-4-yl)-3-(2,6-dichlorophenyl)-5-methylisoxazole-4-carboxamide]"

# Same assay, conditions: versus glutamate alone, one-way ANOVA
Compound,"Effect on deactivation kinetics (τdeac), in words","Effect on desensitization kinetics (τdes), in words"
"COc1ccc(NC(=O)c2c(-c3c(Cl)cccc3Cl)noc2C)cc1OC [CIC-6, 3-(2,6-dichlorophenyl)-N-(3,4-dimethoxyphenyl)-5-methylisoxazole-4-carboxamide]",statistically significant prolongation of τdeac,"accelerated desensitization, although to a lesser degree"
"Cc1onc(-c2c(Cl)cccc2Cl)c1C(=O)Nc1ccc(-c2ccccc2)cc1 [CIC-9, N-([1,1′-biphenyl]-4-yl)-3-(2,6-dichlorophenyl)-5-methylisoxazole-4-carboxamide]",statistically significant prolongation of τdeac,"accelerated desensitization, although to a lesser degree"

# Target: T2, GluA2/3 (UniProt P19491+P42263)
# T2 construct: expressed in transfected cells; host or cells: HEK293T (HEK293) cells, transient co-transfection
# T2 sequence (P19491 22-883 isoform P19491-2 limits assumed): as above
# T2 sequence (P42263 29-894 isoform P42263-2 limits assumed): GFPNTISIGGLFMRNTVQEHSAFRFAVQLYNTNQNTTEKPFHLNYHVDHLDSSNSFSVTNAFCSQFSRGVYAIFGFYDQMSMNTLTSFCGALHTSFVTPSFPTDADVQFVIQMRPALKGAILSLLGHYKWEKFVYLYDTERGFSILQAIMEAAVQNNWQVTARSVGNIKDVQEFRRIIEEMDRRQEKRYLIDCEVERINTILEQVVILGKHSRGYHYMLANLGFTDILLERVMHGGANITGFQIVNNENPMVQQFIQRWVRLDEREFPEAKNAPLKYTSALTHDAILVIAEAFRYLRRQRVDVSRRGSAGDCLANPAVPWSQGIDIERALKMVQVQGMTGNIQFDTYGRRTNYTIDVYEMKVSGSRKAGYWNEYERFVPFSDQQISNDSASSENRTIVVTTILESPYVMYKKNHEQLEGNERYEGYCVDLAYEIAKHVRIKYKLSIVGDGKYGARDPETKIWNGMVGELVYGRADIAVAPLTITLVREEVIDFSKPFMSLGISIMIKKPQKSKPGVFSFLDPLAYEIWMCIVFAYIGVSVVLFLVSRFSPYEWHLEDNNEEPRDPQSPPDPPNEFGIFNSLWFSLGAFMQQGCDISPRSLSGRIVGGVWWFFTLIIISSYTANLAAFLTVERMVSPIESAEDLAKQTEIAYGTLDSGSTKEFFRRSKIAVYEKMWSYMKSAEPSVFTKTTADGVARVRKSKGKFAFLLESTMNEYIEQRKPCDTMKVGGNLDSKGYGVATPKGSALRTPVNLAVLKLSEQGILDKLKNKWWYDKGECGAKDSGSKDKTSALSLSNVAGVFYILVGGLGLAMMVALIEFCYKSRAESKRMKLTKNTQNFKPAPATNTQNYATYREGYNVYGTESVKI
# Test: Whole-cell patch clamp recordings of heteromeric GluA2/3 AMPA receptor currents and kinetics in transfected HEK293t cells
# Type: cell-based
# Conditions: 16 µM compound co-applied with agonist, HEK293t, −60 mV, pH 7.4, 22 °C, mean ± SD, n = 10
# From the text: as §1, §2, §3, §4, §5
row,Amplitude (peak whole-cell current in presence of compound),Compound
1,116±10 pA,"COc1ccc(NC(=O)c2c(-c3c(Cl)cccc3Cl)noc2C)cc1OC [CIC-6, 3-(2,6-dichlorophenyl)-N-(3,4-dimethoxyphenyl)-5-methylisoxazole-4-carboxamide]"
2,124±19 pA,"Cc1onc(-c2c(Cl)cccc2Cl)c1C(=O)Nc1ccc(-c2ccccc2)cc1 [CIC-9, N-([1,1′-biphenyl]-4-yl)-3-(2,6-dichlorophenyl)-5-methylisoxazole-4-carboxamide]"

# Same assay, conditions: 16 µM compound, mean ± SD, n = 10
row,"A/AI (amplitude ratio, glutamate alone / with compound)",Compound
1,4.76±0.14,"COc1ccc(NC(=O)c2c(-c3c(Cl)cccc3Cl)noc2C)cc1OC [CIC-6, 3-(2,6-dichlorophenyl)-N-(3,4-dimethoxyphenyl)-5-methylisoxazole-4-carboxamide]"
2,4.01±0.19,"Cc1onc(-c2c(Cl)cccc2Cl)c1C(=O)Nc1ccc(-c2ccccc2)cc1 [CIC-9, N-([1,1′-biphenyl]-4-yl)-3-(2,6-dichlorophenyl)-5-methylisoxazole-4-carboxamide]"

# Same assay, conditions: 10 mM glutamate for 1 ms, with compound, mean ± SD
row,t deact (weighted deactivation time constant),Compound
1,5.3 ± 0.3 ms,"COc1ccc(NC(=O)c2c(-c3c(Cl)cccc3Cl)noc2C)cc1OC [CIC-6, 3-(2,6-dichlorophenyl)-N-(3,4-dimethoxyphenyl)-5-methylisoxazole-4-carboxamide]"
2,4.5 ± 0.3 ms,"Cc1onc(-c2c(Cl)cccc2Cl)c1C(=O)Nc1ccc(-c2ccccc2)cc1 [CIC-9, N-([1,1′-biphenyl]-4-yl)-3-(2,6-dichlorophenyl)-5-methylisoxazole-4-carboxamide]"

# Same assay, conditions: 10 mM glutamate for 500 ms, with compound, mean ± SD
row,Compound,t des (weighted desensitization time constant)
1,"COc1ccc(NC(=O)c2c(-c3c(Cl)cccc3Cl)noc2C)cc1OC [CIC-6, 3-(2,6-dichlorophenyl)-N-(3,4-dimethoxyphenyl)-5-methylisoxazole-4-carboxamide]",1.6 ± 0.1 ms
2,"Cc1onc(-c2c(Cl)cccc2Cl)c1C(=O)Nc1ccc(-c2ccccc2)cc1 [CIC-9, N-([1,1′-biphenyl]-4-yl)-3-(2,6-dichlorophenyl)-5-methylisoxazole-4-carboxamide]",2.0 ± 0.1 ms

# Same assay, conditions: concentration–response fit, read-out: Log IC50 (converted)
row,IC50,Compound
1,5.75 µM,"COc1ccc(NC(=O)c2c(-c3c(Cl)cccc3Cl)noc2C)cc1OC [CIC-6, 3-(2,6-dichlorophenyl)-N-(3,4-dimethoxyphenyl)-5-methylisoxazole-4-carboxamide]"
2,6.46 µM,"Cc1onc(-c2c(Cl)cccc2Cl)c1C(=O)Nc1ccc(-c2ccccc2)cc1 [CIC-9, N-([1,1′-biphenyl]-4-yl)-3-(2,6-dichlorophenyl)-5-methylisoxazole-4-carboxamide]"

# Same assay, conditions: glutamate alone after the compound, mean ± SD, n = 10
row,"Amplitude, applying glutamate alone after compound",Compound
1,534±56 pA,"COc1ccc(NC(=O)c2c(-c3c(Cl)cccc3Cl)noc2C)cc1OC [CIC-6, 3-(2,6-dichlorophenyl)-N-(3,4-dimethoxyphenyl)-5-methylisoxazole-4-carboxamide]"
2,484±89 pA,"Cc1onc(-c2c(Cl)cccc2Cl)c1C(=O)Nc1ccc(-c2ccccc2)cc1 [CIC-9, N-([1,1′-biphenyl]-4-yl)-3-(2,6-dichlorophenyl)-5-methylisoxazole-4-carboxamide]"

# Same assay, conditions: inhibition of whole-cell peak current, concentration–response, Hill fit, read-out: IC50
row,IC50,Compound
1,5.76 µM,"COc1ccc(NC(=O)c2c(-c3c(Cl)cccc3Cl)noc2C)cc1OC [CIC-6, 3-(2,6-dichlorophenyl)-N-(3,4-dimethoxyphenyl)-5-methylisoxazole-4-carboxamide]"
2,6.42 µM,"Cc1onc(-c2c(Cl)cccc2Cl)c1C(=O)Nc1ccc(-c2ccccc2)cc1 [CIC-9, N-([1,1′-biphenyl]-4-yl)-3-(2,6-dichlorophenyl)-5-methylisoxazole-4-carboxamide]"

# Same assay, conditions: versus glutamate alone, one-way ANOVA
Compound,"Effect on deactivation kinetics (τdeac), in words","Effect on desensitization kinetics (τdes), in words"
"COc1ccc(NC(=O)c2c(-c3c(Cl)cccc3Cl)noc2C)cc1OC [CIC-6, 3-(2,6-dichlorophenyl)-N-(3,4-dimethoxyphenyl)-5-methylisoxazole-4-carboxamide]",statistically significant prolongation of τdeac,"accelerated desensitization, although to a lesser degree"
"Cc1onc(-c2c(Cl)cccc2Cl)c1C(=O)Nc1ccc(-c2ccccc2)cc1 [CIC-9, N-([1,1′-biphenyl]-4-yl)-3-(2,6-dichlorophenyl)-5-methylisoxazole-4-carboxamide]",statistically significant prolongation of τdeac,"accelerated desensitization, although to a lesser degree"
